SMILES strings stand for the structures. A value given as a limit tells only on which side of the number the result lay.

One assay has as its target Cruzipain (Trypanosoma cruzi, UniProt P25779). Briefly: Inhibition of Trypanosoma cruzi cruzain.
Assay [1] deals with Trypanosoma cruzi. The assay can be described thus: Antitrypanosomal activity against Trypanosoma cruzi assessed as growth inhibition. It counts as functional. As to conditions: read-out: ED50 (the source's name).
The nature of assay [2]: Inhibition of Trypanosoma brucei PTR1. As to conditions: read-out: Ki(app).
The test system of assay [3] is Trypanosoma brucei. The assay can be described thus: Antitrypanosomal activity against bloodstream forms of Trypanosoma brucei assessed as growth inhibition. It counts as functional, organism-based.
For assay [4], the system named is Trypanosoma brucei rhodesiense. Briefly: Antitrypanosomal activity against Trypanosoma brucei rhodesiense assessed as growth inhibition. It counts as functional. The note with it: read-out: ED50 (the source's name).
For assay [5], the system named is Trypanosoma brucei. Briefly: Antitrypanosomal activity against Trypanosoma brucei assessed as growth inhibition. It counts as functional, organism-based.
The target in assay [6] is Triosephosphate isomerase, glycosomal (Trypanosoma cruzi) (UniProt P52270). Briefly: Inhibition of Trypanosoma cruzi triosephosphate isomerase at 50 uM.
For assay [7], the system named is Trypanosoma brucei. The assay can be described thus: Inhibition of Trypanosoma brucei triosephosphate isomerase at 50 uM.
The subject of assay [8] is Trypanosoma cruzi. The assay can be described thus: Antitrypanosomal activity against epimastigote forms of Trypanosoma cruzi Y assessed as growth inhibition. It counts as functional, organism-based.
Assay [9] in a line: Selectivity ratio for human triosephosphate isomerase to Trypanosoma cruzi triosephosphate isomerase.

Cruzipain, sequence (P25779 whole entry): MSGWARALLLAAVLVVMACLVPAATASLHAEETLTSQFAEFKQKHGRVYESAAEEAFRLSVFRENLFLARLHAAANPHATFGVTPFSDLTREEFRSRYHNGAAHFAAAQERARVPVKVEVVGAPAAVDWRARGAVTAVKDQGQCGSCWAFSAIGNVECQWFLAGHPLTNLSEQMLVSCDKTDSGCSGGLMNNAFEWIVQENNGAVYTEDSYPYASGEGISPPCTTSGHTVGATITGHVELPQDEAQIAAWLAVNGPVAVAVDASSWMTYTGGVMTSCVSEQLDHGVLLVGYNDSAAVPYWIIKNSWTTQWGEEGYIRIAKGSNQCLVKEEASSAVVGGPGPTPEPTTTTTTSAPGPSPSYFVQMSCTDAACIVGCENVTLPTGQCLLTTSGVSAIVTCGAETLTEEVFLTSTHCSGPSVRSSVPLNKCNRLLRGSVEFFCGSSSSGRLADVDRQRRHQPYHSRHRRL
Triosephosphate isomerase, glycosomal (Trypanosoma cruzi), sequence (P52270 whole entry): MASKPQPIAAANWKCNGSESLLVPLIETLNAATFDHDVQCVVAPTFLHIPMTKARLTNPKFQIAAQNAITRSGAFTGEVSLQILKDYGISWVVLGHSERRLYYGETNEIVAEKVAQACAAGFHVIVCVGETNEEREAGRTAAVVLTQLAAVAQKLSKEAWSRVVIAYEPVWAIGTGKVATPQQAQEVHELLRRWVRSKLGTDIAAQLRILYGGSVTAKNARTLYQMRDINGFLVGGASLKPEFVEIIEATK

At Cruzipain, `Cc1ccc(SCC/C=N/NC2=NC(=O)C(C)S2)cc1` (configuration not stated) showed an IC50 of 20400 nM.

In the case of `CCCC/C(=N\NC(N)=S)c1ccccc1`, the EC50 with Trypanosoma cruzi [1] worked out at 3000 nM.

`CC1SC(N/N=C/CCCSc2ccccc2)=NC1=O` (configuration not stated) showed an IC50 against Cruzipain of 400 nM.

With `CCCOc1cccc2nc(N)n(Cc3ccc(Cl)c(Cl)c3)c12`, in [2], the Ki worked out at 47 nM. Moreover, the EC50 in the assay on Trypanosoma brucei [3] turned out to be 10000 nM.

For `NC(=S)N/N=C(\C=C\c1ccccc1)c1ccccc1`, the EC50 in [4] was determined as 70 nM.

Regarding `Nc1nc2cccc(-c3ccccc3)c2n1Cc1ccc(Cl)c(Cl)c1`, the Ki in assay [2] was determined as 7 nM.

On to `COc1ccccc1C(=O)c1cnc(NC2CCN(C(=O)Nc3ccccc3)CC2)nc1N`, for which the IC50 in the assay with Trypanosoma brucei [5] came to 70 nM.

With `Nc1ccc(-c2nc3ccc(-c4ccc5nc(N)sc5c4)cc3s2)cc1`, the inhibition (in assay [6]; in the assay with Trypanosoma brucei [7]) was above 90% in each case.

Turning to `CCC1SC(N/N=C/CCSc2ccccc2)=NC1=O` (configuration not stated), in the assay with Trypanosoma cruzi [8], the IC50 came out at 300 nM.

For `Cc1ccc2nc(-c3ccc(N)cc3)sc2c1`, the Selectivity ratio in [9] came to 200.

(Values after ChEMBL document CHEMBL3352665, “Trends in research of antitrypanosomal agents among synthetic heterocycles” (Eur J Med Chem, 2014).)
